According to patent US20240376142A1, “A-SALIDROSIDE, METHOD FOR PREPARING SAME, AND APPLICATION THEREOF” (SHANDONG HENGLU BIOTECH. CO., LTD., priority 2021, published 2024):

Experiments:
[1] = DPPH radical scavenging experiment; type: biochemical; conditions: for DPPH Radical Scavenging Rate: 500 mg/L aqueous sample solution mixed 1:1 with 0.04 mg/ml DPPH ethanol solution, dark, 517 nm
Excerpt: Free radicals play a significant role, either directly or indirectly, in oxidative processes and are widely involved in the physiological and pathological processes of the body. When the body has an excess of free radicals, the body damage can be caused by free radicals through oxidative actions. Phenolic compounds, being donors of phenolic hydroxyl groups, form the structural basis for antioxidant activity. This experiment employs the DPPH [1,1-Diphenyl-2-trinitrophenyl hydrazine, also known as 1,1-Diphenyl-2-picrylhydrazyl, (free radical)] radical scavenging reaction to study the scavenging efficiency of α-salidroside and β-salidroside on DPPH radicals. • (1) α-salidroside solution: prepared as a 500 mg/L aqueous solution using conventional methods. • (2) β-salidroside solution: prepared as a 500 mg/L aqueous solution using conventional methods. • (3) DPPH ethanol solution: prepared as a 0.04 mg/ml solution in anhydrous ethanol using conventional methods. • (1) 0.9 mL each of α-salidroside solution and β-salidroside aqueous solution were taken separately, and 0.9 mL of DPPH anhydrous ethanol solution was added to each, mixed well, and then left to stand in the dark. Samples were taken at 0.5 h, 1 h, 2 h, and 4 h respectively, and the absorbance was measured at a wavelength of 517 nm. The average of three parallels was calculated and noted as Ai. • (2) 0.9 mL each of α-salidroside solution and β-salidroside aqueous solution were taken separately, and 0.9 mL of anhydrous ethanol was added to each, mixed well, and then left to stand in the dark […]. Samples were taken at 0.5 h, 1 h, 2 h, and 4 h respectively, and the absorbance was measured at a wavelength of 517 nm. The average of three parallels was calculated and noted as Aj. • (3) 0.9 mL of distilled water was taken, to which 0.9 mL of DPPH ethanol solution was added, mixed well, and the absorbance was measured at a wavelength of 517 nm. The average of three parallels was calculated and noted as A4. • (4) 0.9 mL of anhydrous ethanol was taken, to which 0.9 mL of distilled water was added, mixed well, and was used as a blank. The DPPH radical scavenging rate was calculated according to the formula below, and the results were recorded in Table 3. [formula]

[2] = Hydroxyl radical scavenging experiment (Fenton reaction, 1,10-phenanthroline spectrophotometry); type: biochemical; conditions: for Hydroxyl Radical Scavenging Rate: 37° C., 30 minutes, 536 nm
Excerpt: The Hydroxyl Radical Scavenging Activity is an important indicator for measuring the antioxidant capacity of substances. Currently, the main analytical testing methods for hydroxyl radicals include High Performance Liquid Chromatography, Chemiluminescence, Fluorescence Analysis, and Spectrophotometry, etc. Among them, the most commonly used method for measuring the hydroxyl radical scavenging activity is Spectrophotometry, which can be used to determine the inhibition of the absorbance decline of the colorant 1,10-Phenanthroline by the sample, thereby reflecting the ability of the sample to scavenge hydroxyl radicals. The measurement principle is as follows: H2O2/Fe^2+ produces hydroxyl radicals through the Fenton reaction, oxidizing Fe^2+ in the 1,10-Phenanthroline-Fe^2+ aqueous solution to Fe^3+, leading to a decline in the absorbance at 536 nm. The degree to which the sample inhibits the rate of absorbance decline at 536 nm reflects the ability of the sample to scavenge hydroxyl radicals.
• (1) FeSO4 Solution: 1.5 mM and 5 mM FeSO4 aqueous solutions were prepared using conventional methods. • (2) PBS Buffer: • 1) 0.2 mol/L sodium dihydrogen phosphate and 0.2 mol/L disodium hydrogen phosphate aqueous solutions were prepared. • 2) 19 mL of sodium dihydrogen phosphate aqueous solution and 81 mL of disodium hydrogen phosphate aqueous solution were taken, mixed well, and the pH was adjusted to 7.4 (measured with a pH meter, and the pH value was adjusted with 0.1 mol/L sodium hydroxide or 0.1 mol/L phosphoric acid if necessary). • (3) 1,10-Phenanthroline: 0.75 mM and 3 mM aqueous solutions were prepared using conventional methods. • (4) Hydrogen Peroxide (H2O2) Solution: 0.1% (v/v) aqueous solution was prepared using conventional methods. • (5) α-salidroside Solution: 1 mg/mL and 4 mg/mL aqueous solutions were prepared using conventional methods. • (6) β-salidroside Solution: 1 mg/mL and 4 mg/mL aqueous solutions were prepared using conventional methods.
Scheme 1: Using 5 mM FeSO4 aqueous solution, 0.1% hydrogen peroxide, 1 mg/mL α-salidroside aqueous solution or 1 mg/mL β-salidroside aqueous solution, and 3 mM 1,10-Phenanthroline aqueous solution, the following operation steps were carried out for the reaction.
Scheme 2: Using 1.5 mM FeSO4 aqueous solution, 0.1% hydrogen peroxide, 4 mg/mL α-salidroside aqueous solution or 4 mg/mL β-salidroside aqueous solution, and 0.75 mM 1,10-Phenanthroline aqueous solution, the following operation steps were carried out for the reaction.
Specific Operation Steps: (1) 40 μL of α-salidroside solution or β-salidroside solution was taken separately, to which 40 μL of FeSO4 solution, 60 μL of PBS buffer solution (pH 7.4), and 40 μL of 1,10-Phenanthroline solution were added respectively, mixed well. Then, 40 μL of H2O2 solution was added and mixed well again. […] Using distilled water as blank, the absorbance at 536 nm wavelength was measured and the average of three parallels was calculated and noted as Ai.
(2) 80 μL of distilled water was taken, to which 40 μL of FeSO4 solution, 60 μL of PBS buffer solution (pH 7.4), and 40 μL of 1,10-Phenanthroline solution were added and mixed well. […] Using distilled water as blank, the absorbance at 536 nm wavelength was measured and the average of three parallels was calculated and noted as Aj. […] Using distilled water as blank, the absorbance at 536 nm wavelength was measured and the average of three parallels was calculated and noted as A0.

[3] = Scheme 1: 1 mg/mL sample solution, 5 mM FeSO4, 0.1% hydrogen peroxide, 3 mM 1,10-Phenanthroline
[4] = Scheme 2: 4 mg/mL sample solution, 1.5 mM FeSO4, 0.1% hydrogen peroxide, 0.75 mM 1,10-Phenanthroline

Row | Structure (SMILES) | DPPH Radical Scavenging Rate ([1]; 0.5 h) [%] | DPPH Radical Scavenging Rate ([1]; 1 h) [%] | DPPH Radical Scavenging Rate ([1]; 2 h) [%] | DPPH Radical Scavenging Rate ([1]; 4 h) [%] | capability of scavenging DPPH radicals compared to β-salidroside ([1]; in words, from Table 3, especially when the reaction time is over 1 hour) | Hydroxyl Radical Scavenging Rate [2, 3] [%] | Hydroxyl Radical Scavenging Rate [2, 4] [%] | capability in scavenging hydroxyl radicals compared to β-salidroside ([2]; in words, from Table 4, both schemes)
1 | OC[C@H]1O[C@H](OCCc2ccc(O)cc2)[C@H](O)[C@@H](O)[C@@H]1O [α-salidroside, 2-(4-hydroxyphenyl) ethyl-α-D-glucopyranoside] | 19.29 | 28.45 | 31.00 | 34.12 | higher capability of scavenging DPPH radicals compared to β-salidroside | 28.69 | 21.62 | far superior to that of β-salidroside
2 | OC[C@H]1O[C@@H](OCCc2ccc(O)cc2)[C@H](O)[C@@H](O)[C@@H]1O [β-salidroside, reference compound] | 19.96 | 23.21 | 28.24 | 28.33 | – | 13.92 | 4.05 | –
